In patent US20220249454A1, “INHIBITORS OF MONOCARBOXYLATE TRANSPORTERS FOR CANCER IMMUNOTHERAPY” (NIROGY THERAPEUTICS, INC., priority 2021, published 2022):

Experiments:
[1] = system: monocarboxylate transporters; assay: Lactate detection assay in cancer cell lines (intracellular lactate, Lactate-glo); format: cell-based; conditions: 24 hours incubation
Description: Cells are maintained in their appropriate growth medium (RPMI medium with 2 g/L glucose, 2 mM L-glutamine supplemented with 10% FBS and P/S (growth medium). 15,000-25,000 cells were seeded into white 96-well plates in growth medium and incubated for 24 hours at 37° C. and 5% CO2. A duplicate plate was also seeded for normalization by an MTS assay. Dry weight compound stocks were dissolved to a concentration of 10 mM in 100% DMSO. Compounds were further diluted in the assay medium (Lactate media: 10 mM lactate, 5% FBS, and 1× P/S; Glucose media: RPMI, 5% FBS, and 1× P/S). Growth media was changed 24 hours later to assay medium containing 10 μM compound or vehicle (DMSO) control and incubated for 24 hours. Conditioned media was collected and the cells were washed in 200 μL ice-cold PBS. […] After a 5 minute incubation, 12.5 μL Neutralization solution (1M Trizma) is incubated for 1 minute. Intracellular lactate measurements were performed using a Lactate-glo kit (Promega). Briefly, the lactate detection reagent is mixed immediately before use and 50 μL is pipetted into each well and incubated at room temperature for 1 hour. Lactate is oxidized by enzymatic reactions to generate light. The luminescence is recorded using a Spectramax M5e plate reader and the concentration of lactate is determined using a known concentration of spiked lactate in PBS using GraphPad Prism.

[2] = system: panel of solid and haemotological tumor cell lines (e.g., Hs578t, SiHa, MDA-MB-231); assay: MTS cell proliferation assay (cytotoxicity); format: cell-based; conditions: 72-96 hours, 10 mM lactate medium or RPMI 1640 medium, cell line not stated
Description: The anti-proliferation effect of MCT inhibition was investigated across a panel of solid and haemotological tumor cell lines. Cells were routinely cultured in their appropriate growth medium. On day 1, between 10,000-25,000 cells/well (e.g., Hs578t: 15,000 cells/well, SiHa: 10,000 cells/well, and MDA-MB-231: 25,000 cells/well) were plated into 96-well plates. 100 μL. of phosphate buffered saline solution was added to the external wells to prevent media evaporation. Plates were incubated in growth medium overnight at 37° C. in the presence of 5% CO2. On day 2, dry weight compound stocks were dissolved to a concentration of 10 mM in 100% DMSO. Compounds were further diluted in the assay medium; 10 mM lactate medium (without glucose, pyruvate, and glutamine) or RPMI 1640 medium (without pyruvate and glutamine) to generate a final dose range of 1 nM to 10 μM. Growth medium in the 96-well plate was replaced with the assay medium (10 mM lactate medium or RPMI medium or appropriate medium), and compounds were added to each well in the plate at different concentrations via serial dilution or pre-prepared solutions in assay medium. Plates were then incubated at 37° C. in the presence of 5% CO2 for a further 72-96 hours. On day 2-5, assay media was changed to 100 uL of DMEM/F12 and 20 μL of CellTiter 96 AQ MTS reagent was added to each well and the plate was returned to the incubator for 1-2 hours. MTS is bioreduced by NADPH or NADH produced by dehydrogenase enzymes in metabolically active cells into a coloured formazan product that is soluble in tissue culture medium. The amount of coloured formazan product is directly proportional to the number of living cells in culture. The absorbance of the plates was read on a Spectramax M5e plate reader using […] measurement wavelength. Dose response curves were plotted and IC50 values were calculated using GraphPad Prism. The IC50 value is equivalent to the concentration of compound that causes 50% inhibition of growth calculated from the compound treated signal to the vehicle treated signal.
Cytotoxicity of selected compounds is listed in Table 1, where IC50: A=<1 uM; B=1-10 uM; C=>10 uM; and NT=Not Tested.

[3] = target: T1, monocarboxylate transporter 4 (MCT4) (Homo sapiens, UniProt O15427); conditions: literature value; cited from earlier work
T1 sequence (O15427 2-465 limits assumed): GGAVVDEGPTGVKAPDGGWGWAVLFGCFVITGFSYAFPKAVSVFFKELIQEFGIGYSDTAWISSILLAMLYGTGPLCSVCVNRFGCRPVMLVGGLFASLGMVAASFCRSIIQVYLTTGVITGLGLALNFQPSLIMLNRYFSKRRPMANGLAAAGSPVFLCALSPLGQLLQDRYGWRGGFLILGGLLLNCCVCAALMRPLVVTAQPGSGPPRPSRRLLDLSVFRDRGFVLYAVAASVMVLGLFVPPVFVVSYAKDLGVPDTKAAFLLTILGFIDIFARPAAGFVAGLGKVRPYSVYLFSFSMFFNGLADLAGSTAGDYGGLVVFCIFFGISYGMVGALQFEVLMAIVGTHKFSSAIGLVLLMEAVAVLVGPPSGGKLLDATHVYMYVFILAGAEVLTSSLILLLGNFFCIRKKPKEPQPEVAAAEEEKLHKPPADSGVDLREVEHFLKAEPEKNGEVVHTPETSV
T1 sequence (P35613 140-385 partner limits assumed): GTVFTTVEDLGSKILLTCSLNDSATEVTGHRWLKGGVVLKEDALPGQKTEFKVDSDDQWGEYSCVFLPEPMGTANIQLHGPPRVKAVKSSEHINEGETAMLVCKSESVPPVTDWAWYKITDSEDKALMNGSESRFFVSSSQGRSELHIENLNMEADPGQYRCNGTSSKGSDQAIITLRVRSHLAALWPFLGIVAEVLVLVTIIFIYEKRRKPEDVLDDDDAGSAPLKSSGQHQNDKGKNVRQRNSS

[4] = system: tumor cells; conditions: literature, Cell Reports 2019; cited from earlier work
[5] = target: T2, monocarboxylate transporter 1 (MCT1) (Homo sapiens, UniProt P53985); conditions: literature value; cited from earlier work
T2 sequence (P53985 1-500): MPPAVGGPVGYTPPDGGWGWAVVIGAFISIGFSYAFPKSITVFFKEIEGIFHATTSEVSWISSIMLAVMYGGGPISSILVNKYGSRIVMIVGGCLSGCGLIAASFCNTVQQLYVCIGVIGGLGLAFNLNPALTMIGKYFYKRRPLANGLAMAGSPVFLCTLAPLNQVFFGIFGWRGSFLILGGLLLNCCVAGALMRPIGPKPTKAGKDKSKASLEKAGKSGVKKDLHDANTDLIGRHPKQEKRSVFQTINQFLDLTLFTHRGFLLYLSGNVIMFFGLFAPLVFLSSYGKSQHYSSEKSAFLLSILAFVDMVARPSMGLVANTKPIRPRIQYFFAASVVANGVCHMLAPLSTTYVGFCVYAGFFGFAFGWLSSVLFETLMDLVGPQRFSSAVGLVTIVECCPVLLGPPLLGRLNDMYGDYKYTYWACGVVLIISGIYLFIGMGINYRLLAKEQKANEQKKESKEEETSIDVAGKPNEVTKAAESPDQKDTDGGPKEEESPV
T2 sequence (P35613 140-385 partner limits assumed): T1 sequence (P35613 140-385 partner limits assumed)

IC50 [1] | Structure (SMILES) | IC50 ([2]; Table 1 (Group 1)) | IC50 ([2]; Table 2 (Group 2)) | also measured
< 1 µM | CN(Cc1ccccc1)c1cc2oc(=O)c(C(=O)O)cc2s1 [Compound 1.001, 2-(benzyl(methyl)amino)-5-oxo-5H-thieno[3,2-b]pyran-6-carboxylic acid] | < 1 µM | – | –
– | O=C(O)Cc1ccccc1Nc1c(Cl)cccc1Cl [diclofenac] | – | – | IC50 [3]: 140 nM; concentration required to see efficacy in in vitro models [4]: 150 to 200 µM; IC50 [5]: 1400 nM
< 1 µM | COc1cccc(C(=O)N(C)c2cc3oc(=O)c(C(=O)O)cc3s2)c1 [Compound 1.009, 2-(3-methoxy-N-methylbenzamido)-5-oxo-5H-thieno[3,2-b]pyran-6-carboxylic acid] | < 1 µM | – | –
< 1 µM | CN(Cc1ccc(F)cc1)c1cc2oc(=O)c(C(=O)O)cc2s1 [Compound 1.002, 2-((4-fluorobenzyl)(methyl)amino)-5-oxo-5H-thieno[3,2-b]pyran-6-carboxylic acid] | < 1 µM | – | –
< 1 µM | COc1cc(F)ccc1C(=O)N(C)c1cc2oc(=O)c(C(=O)O)cc2s1 [Compound 1.094, 2-(4-fluoro-2-methoxy-N-methylbenzamido)-5-oxo-5H-thieno[3,2-b]pyran-6-carboxylic acid] | < 1 µM | – | –
– | CCOc1cc(NC(=O)N(C)c2cc3oc(=O)c(C(=O)O)cc3s2)ccc1F [Compound 2.017, 2-(3-(3-ethoxy-4-fluorophenyl)-1-methylureido)-5-oxo-5H-thieno[3,2-b]pyran-6-carboxylic acid] | – | < 1 µM | –
– | CN(Cc1cccc(-c2ccc(F)cc2)c1)c1cc2oc(=O)c(C(=O)O)cc2s1 [Compound 2.050, 2-(((4′-fluoro-[1,1′-biphenyl]-3-yl)methyl)(methyl)amino)-5-oxo-5H-thieno[3,2-b]pyran-6-carboxylic acid] | – | < 1 µM | –
– | COc1cc(NC(=O)N(C)c2cc3oc(=O)c(C(=O)O)cc3s2)cc(OC)c1 [Compound 2.022, 2-(3-(3,5-dimethoxyphenyl)-1-methylureido)-5-oxo-5H-thieno[3,2-b]pyran-6-carboxylic acid] | – | < 1 µM | –
– | CN(C(=O)c1cccc(C(F)(F)F)c1)c1cc2oc(=O)c(C(=O)O)cc2s1 [Compound 1.015, 2-[Methyl-(3-trifluoromethyl-benzoyl)-amino]-5-oxo-5H-thieno[3,2-b]pyran-6-carboxylic acid] | < 1 µM | – | –
< 1 µM | COc1ccccc1C(=O)N(C)c1cc2oc(=O)c(C(=O)O)cc2s1 [Compound 1.017, 2-[(2-Methoxy-benzoyl)-methyl-amino]-5-oxo-5H-thieno[3,2-b]pyran-6-carboxylic acid] | < 1 µM | – | –
– | CN(C(=O)Nc1ccc(F)cc1)c1cc2oc(=O)c(C(=O)O)cc2s1 [Compound 2.005, 2-(3-(4-fluorophenyl)-1-methylureido)-5-oxo-5H-thieno[3,2-b]pyran-6-carboxylic acid] | – | < 1 µM | –
– | CN(C(=O)NC1CCCC1)c1cc2oc(=O)c(C(=O)O)cc2s1 [Compound 2.027, 2-(3-cyclopentyl-1-methylureido)-5-oxo-5H-thieno[3,2-b]pyran-6-carboxylic acid] | – | < 1 µM | –
– | COc1ccc(CN(C)c2cc3oc(=O)c(C(=O)O)cc3s2)cc1 [Compound 1.021, 2-[(4-Methoxy-benzyl)-methyl-amino]-5-oxo-5H-thieno[3,2-b]pyran-6-carboxylic acid] | < 1 µM | – | –
